According to paper PMC11032350, “SMS121, a new inhibitor of CD36, impairs fatty acid uptake and viability of acute myeloid leukemia” (Scientific Reports, 2024):

Molecular target: T1, CD36 (Homo sapiens, UniProt P16671)
T1 construct: commercial biotinylated His, Avitag human CD36, captured on streptavidin CAP chip
Assay: SPR (Biacore […]), steady-state […] fit
Type: binding

T1 sequence (P16671 30-439 limits assumed): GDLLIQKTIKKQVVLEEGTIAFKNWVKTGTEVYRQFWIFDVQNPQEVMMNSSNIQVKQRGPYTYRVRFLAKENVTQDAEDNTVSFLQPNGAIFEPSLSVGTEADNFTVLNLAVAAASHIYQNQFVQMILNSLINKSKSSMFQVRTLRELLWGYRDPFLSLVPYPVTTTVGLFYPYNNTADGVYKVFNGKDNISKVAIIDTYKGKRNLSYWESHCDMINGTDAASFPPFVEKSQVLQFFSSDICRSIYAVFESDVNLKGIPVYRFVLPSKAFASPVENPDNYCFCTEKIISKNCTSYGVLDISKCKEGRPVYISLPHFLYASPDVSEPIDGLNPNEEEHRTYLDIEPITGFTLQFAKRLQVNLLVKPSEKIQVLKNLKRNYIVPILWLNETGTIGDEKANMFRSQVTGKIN

Kd: ~5 µM
SMILES: COc1cc(/C=C/C(=O)c2ccc(N(C)C)cc2)ccc1OCC(=O)O [SMS121, (E)-2-(4-(3-(4-(dimethylamino)phenyl)-3-oxoprop-1-en-1-yl)-2-methoxyphenoxy) acetic acid]
